This test deals with SARS-CoV-2 pseudotyped HIV-1 virions, D614G.

Structures are written as SMILES. *1 amine or outer side, *2 acyl side, *3 side chain or, on linkers, in order; H or OH if unused. Where a SMILES comes first, the peptide text is derived from it. Bridges are numbered along the chain shown (N, C = ends). Roman numbers before positions name the chains, in order. [ ]: non-standard residue; d: D form. X1 = O=C(CCOCCOCCOCCOCCOCCOCCOCCOCCOCCOCCOCCOCCOCCOCCOCCOCCOCCOCCOCCOCCOCCOCCOCCOCCn1cc(CCC(=O)[*:2])nn1)[*:1]; TATB = O=C(C[*:1])N1CN(C(=O)C[*:2])CN(C(=O)C[*:3])C1; X2 = C(c1nc(C[*:2])nc(C[*:3])n1)[*:1]; hArg = N=C(N)NCCCC[C@H](N)C(=O)O; tBuAla = CC(C)(C)C[C@H](N)C(=O)O

Usually IC50 stands for the concentration that gives 50% inhibition. Low readings indicate greater potency, high ones weaker potency. `CC(=O)N[C@H]1CSCC(=O)N2CN3CN(C2)C(=O)CSC[C@H](NC(=O)[C@H](C(C)C)NC(=O)[C@@H]2CCCN2C(=O)[C@H](CC(N)=O)NC(=O)[C@H](CC(=O)O)NC(=O)[C@@H]2CCCN2C(=O)[C@H](CC(N)=O)NC(=O)[C@H](C)NC1=O)C(=O)N[C@@H](CCCNC(=N)N)C(=O)N[C@@H](Cc1ccccc1)C(=O)N[C@@H](Cc1ccc(O)cc1)C(=O)N[C@H](C(=O)N[C@@H](CCCCNC(=O)CCOCCOCCOCCOCCOCCOCCOCCOCCOCCOCCOCCOCCOCCOCCOCCOCCOCCOCCOCCOCCOCCOCCOCCOCCn1cc(CCC(=O)NCCCC[C@H](NC(=O)[C@@H]2CSCc4nc5nc(n4)CSC[C@H](NC(C)=O)C(=O)N4CCC[C@H]4C(=O)N[C@@H](Cc4ccc(O)cc4)C(=O)N[C@@H](C(C)C)C(=O)N[C@@H](C)C(=O)NCC(=O)N[C@@H](CCCCNC(=N)N)C(=O)N[C@H](C)C(=O)N[C@@H]([C@@H](C)O)C(=O)N[C@@H](CSC5)C(=O)N[C@@H](CC(C)C)C(=O)N[C@@H](CC(C)(C)C)C(=O)N2)C(N)=O)nn1)C(N)=O)CSCC3=O` [BCY18786] (I: Ac-CANPDNPVCRFYCK-NH2 / II: Ac-CPYVAG[hArg][dA]TCL[tBuAla]CK-NH2; linker I:1-I:9-I:13 via TATB; linker I:14-II:14 via X1; linker II:1-II:10-II:13 via X2): the IC50 is 20 nM.

The record behind these values is US20240108737A1, “ANTI-INFECTIVE BICYCLIC PEPTIDE LIGANDS” (priority 2021, published 2024).
